The target in test [1] is Beta-hexosaminidase (Homo sapiens). Nature of the test: Inhibition of human placenta beta-N-acetylglucosaminidase by pNP-GlcNAc substrate hydrolysis assay.
Test [2] shares this target. Briefly: Mixed type inhibition of human placenta beta-N-acetylglucosaminidase by pNP-GlcNAc substrate hydrolysis assay.

The values that follow come from BindingDB's records for doi:10.1016/j.bmc.2009.08.052 (Okayama University, 2009).

For the molecule `CC(=O)NC[C@H]1[C@H](O)[C@H](O)[C@@H]2[C@H](O)C[C@@H](CO)N21` [(1R*, 3S*, 5S*, 6S*, 7R*, 7a S*)-5-acetamidomethyl-3-hydroxymethyl-1,6,7-trihydroxypyrrolizidine], the IC50 in test [1] is 2.39 nM. The same molecule had a Ki in test [2] of 1.25 nM.
